Reference: ChEMBL document CHEMBL5131493, “Synthesis and evaluation of RNase L-binding 2-aminothiophenes as anticancer agents” (Bioorg Med Chem, 2022)
The source made the active and inactive calls. No cut-off for these calls is given here.

Legend:
[1] = organism: Homo sapiens; assay: Binding affinity to RNase L (unknown origin) expressed in Escherichia coli BL21 (DE3) assessed as thermal stability by measuring melting temperature at 60 uM incubated for 50 mins by NanoDSF analysis
[2] = system: JAR; assay: Antiproliferative activity against human JAR cells assessed as cell growth inhibition at 10 uM incubated for 72 hrs by MTT assay relative to control; type: functional
[3] = system: MCF7; assay: Antiproliferative activity against human MCF7 cells assessed as cell growth inhibition at 10 uM incubated for 72 hrs by MTT assay relative to control; type: functional
[4] = system: JAR; assay: Antiproliferative activity against human JAR cells assessed as cell growth inhibition incubated for 72 hrs by MTT assay; type: functional, cell-based
[5] = system: K562; assay: Antiproliferative activity against human K562 cells assessed as cell growth inhibition incubated for 72 hrs by MTT assay; type: functional, cell-based; details: K562, 72 h
[6] = system: A549; assay: Antiproliferative activity against human A549 cells assessed as cell growth inhibition incubated for 72 hrs by MTT assay; type: functional, cell-based; details: A549, 72 h
[7] = system: MCF7; assay: Antiproliferative activity against human MCF7 cells assessed as cell growth inhibition incubated for 72 hrs by MTT assay; type: functional, cell-based; details: MCF7, 72 h
[8] = system: A549; assay: Antiproliferative activity against human A549 cells assessed as cell growth inhibition at 10 uM incubated for 72 hrs by MTT assay relative to control; type: functional
[9] = system: K562; assay: Antiproliferative activity against human K562 cells assessed as cell growth inhibition at 10 uM incubated for 72 hrs by MTT assay relative to control; type: functional
[10] = system: JAR; assay: Induction of apoptosis in human JAR cells assessed as fold increase in cleaved PARP level at 10 uM incubated for 24 hrs by Western blot analysis; type: functional
[11] = system: JAR; assay: Inhibition of cell migration in human JAR cells at 5 uM measured after 72 hrs by scratch wound healing assay relative to control; type: functional
[12] = system: JAR; assay: Inhibition of colony formation in human JAR cells measured after 3 days by Giemsa staining based microscopic analysis; type: functional, cell-based; details: time 3.0 day, DDE = dose-dependent effect
[13] = system: JAR; assay: Inhibition of colony formation in human JAR cells assessed as cell reproductive death at upto 5 uM measured after 3 days by Giemsa staining based microscopic analysis; type: functional; details: time 3.0 day

ΔTm [1] | IC50 [5] | IC50 [6] | IC50 [7] | Structure (SMILES) | inhibition at 10 µM [2] | inhibition at 10 µM [3] | IC50 [4] | inhibition at 10 µM [8] | inhibition at 10 µM [9] | fold change (FC) [10] | inhibition at 5 µM [11] | inhibition [12] | inhibition [13]
0.8 °C | 7 µM | 9.8 µM | 13.7 µM | CCOC(=O)C1=C(Nc2ccccc2)S/C(=C\c2ccc(C(F)(F)F)cc2)C1=O | 68.7% | 41.3% | 5.9 µM | – | – | – | – | – | –
-1.3 °C | 10.4 µM | > 100 µM | > 100 µM | CCOC(=O)C1=C(Nc2ccccc2)S/C(=C\c2ccc(O)c(OC)c2)C1=O | 49.7% | 23.2% | 8.9 µM | 24.2% | – | – | – | – | –
– | 46.8 µM | > 100 µM | 30.5 µM | CCOC(=O)C1=C(Nc2ccccc2)S/C(=C\c2ccc(C(=O)OCC)[nH]2)C1=O | 60.1% | – | 10.6 µM | < 10% | 18.6% | – | – | – | –
– | 16.5 µM | > 100 µM | – | CN1CCN(c2cc3c(cc2[N+](=O)[O-])-c2c(cnn2-c2ccc(C(=O)O)cc2)C(C)(C)O3)CC1 | 53.5% | – | 9.3 µM | – | – | – | – | – | –
0.8 °C | – | – | – | CCOC(=O)C1=C(Nc2ccccc2)S/C(=C\c2ccccc2)C1=O | 20.3% | 23.6% | – | 29.6% | 42.9% | – | – | – | –
0.7 °C | 4.5 µM | 17 µM | 18.1 µM | CCOC(=O)C1=C(Nc2ccccc2)SC(=C2CCC2)C1=O | 70.2% | 40.4% | 8.4 µM | – | – | – | – | – | –
– | 36.3 µM | 43.2 µM | 27.1 µM | CCOC(=O)C1=C(Nc2ccccc2Br)S/C(=C\c2ccc[nH]2)C1=O | 62.7% | 29.4% | 8.9 µM | – | 20.5% | – | – | – | –
– | > 100 µM | – | – | CCOC(=O)C1=C(Nc2ccc(F)cc2)S/C(=C\c2ccc[nH]2)C1=O | 61.5% | < 10% | 15.9 µM | < 10% | – | – | – | – | –
0.5 °C | – | – | – | CCOC(=O)C1=C(Nc2ccccc2)S/C(=C\c2cc(OC)ccc2OC)C1=O | 38.1% | < 10% | – | < 10% | 30.7% | – | – | – | –
– | 8.8 µM | 16.9 µM | 15.1 µM | CCOC(=O)C1=C(Nc2ccccc2)S/C(=C\c2ccccc2O)C1=O | 89.4% | – | 8 µM | – | – | – | – | – | –
– | 7.2 µM | 23.9 µM | 20.7 µM | CCOC(=O)C1=C(Nc2cccc([N+](=O)[O-])c2)S/C(=C\c2ccc[nH]2)C1=O | 57.4% | 27.4% | 10.1 µM | – | – | – | – | – | –
0.5 °C | 11.6 µM | 47 µM | – | CCOC(=O)C1=C(Nc2ccccc2)S/C(=C2\CCN(C(=O)OC(C)(C)C)C2)C1=O | – | 33.8% | 37 µM | – | – | – | – | – | –
1 °C | – | – | – | CCOC(=O)C1=C(Nc2ccccc2)S/C(=C\c2cccnc2)C1=O | 32.1% | < 10% | – | < 10% | < 10% | – | – | – | –
– | > 100 µM | – | – | CCOC(=O)C1=C(Nc2cccc(C(F)(F)F)c2)S/C(=C\c2ccc[nH]2)C1=O | 52.9% | 22.9% | 19.7 µM | 22.8% | – | – | – | – | –
0.7 °C | – | – | – | CCOC(=O)C1=C(Nc2ccccc2)SC(=C2CCCCC2)C1=O | 15.5% | – | – | – | 18.7% | – | – | – | –
– | > 100 µM | – | – | CCOC(=O)C1=C(Nc2ccccc2)S/C(=C\c2c[nH]c3ccccc23)C1=O | 57.6% | 25% | 14.1 µM | 19.8% | – | – | – | – | –
– | > 100 µM | – | – | CCOC(=O)C1=C(Nc2ccc([N+](=O)[O-])cc2)S/C(=C\c2ccc[nH]2)C1=O | 54.9% | – | 15.6 µM | – | – | – | – | – | –
– | 31.7 µM | 19.2 µM | – | CCOC(=O)C1=C(Nc2ccccc2)S/C(=C\c2cc(OC)c(O)c(OC)c2)C1=O | 57.5% | 12.9% | 17.4 µM | 19.2% | – | – | – | – | –
– | > 100 µM | – | – | CCOC(=O)C1=C(Nc2ccccc2)S/C(=C\c2cc3cccnc3[nH]2)C1=O | 54.3% | 18.2% | 14.4 µM | 16.7% | – | – | – | – | –
0.5 °C | 10.7 µM | 35.8 µM | – | CCOC(=O)C1=C(Nc2ccccc2)SC(=C2CN(C(=O)OC(C)(C)C)C2)C1=O | – | 29.6% | 23.2 µM | – | – | – | – | – | –
– | 5.2 µM | > 100 µM | 25.2 µM | CCOC(=O)C1=C(Nc2ccccc2)S/C(=C\c2ccc(O)c(O)c2)C1=O | 48.7% | 38.1% | 6.1 µM | 30.7% | – | – | – | – | –
– | > 100 µM | – | – | CCOC(=O)C1=C(Nc2cccc(F)c2)S/C(=C\c2ccc[nH]2)C1=O | 45.4% | < 10% | 22.6 µM | < 10% | – | – | – | – | –
– | 16.2 µM | – | – | CCOC(=O)C1=C(Nc2ccccc2)S/C(=C\c2cccc(C(=O)O)c2)C1=O | 50.6% | < 10% | 11.7 µM | < 10% | – | – | – | – | –
0.5 °C | 38.7 µM | – | – | CCOC(=O)C1=C(Nc2ccccc2)S/C(=C\c2cccc(O)c2)C1=O | 51.9% | 24.1% | 17 µM | 30.6% | – | – | – | – | –
– | 71 µM | > 100 µM | 48 µM | CCOC(=O)C1=C(Nc2ccccc2)S/C(=C\c2ccc[nH]2)C1=O | 49.2% | 18.3% | 9.5 µM | 23.5% | 16.2% | – | – | – | –

Second part, the molecule before the results:

Structure (SMILES) | ΔTm [1] | IC50 [5] | IC50 [6] | IC50 [7] | inhibition at 10 µM [2] | inhibition at 10 µM [3] | IC50 [4] | inhibition at 10 µM [8] | inhibition at 10 µM [9] | fold change (FC) [10] | inhibition at 5 µM [11] | inhibition [12] | inhibition [13]
CCOC(=O)C1=C(Nc2ccccc2)S/C(=C\c2cc[nH]c2)C1=O | – | – | – | – | 19.5% | < 10% | – | < 10% | 18.9% | – | – | – | –
CCOC(=O)C1=C(Nc2ccc(C(F)(F)F)cc2)S/C(=C\c2ccc[nH]2)C1=O | – | – | – | – | 38.5% | 19.1% | 46.8 µM | 30.1% | – | – | – | – | –
CCOC(=O)C1=C(Nc2ccccc2)S/C(=C\C2CCCCC2)C1=O | 1.4 °C | 5.9 µM | 18 µM | 6.4 µM | 95.2% | 45.3% | 3.7 µM | – | – | >1.5 | 42% | Dde | Active
CCOC(=O)C1=C(Nc2ccccc2)S/C(=C\c2cc3cnccc3[nH]2)C1=O | – | – | – | – | < 10% | – | – | – | – | – | – | – | –
CCOC(=O)C1=C(Nc2ccc(CC)cc2)S/C(=C\c2ccc[nH]2)C1=O | – | – | – | – | < 10% | – | – | 17.5% | – | – | – | – | –
CCOC(=O)C1=C(Nc2ccccc2)S/C(=C\c2ccccc2C(F)(F)F)C1=O | 0.8 °C | – | – | – | 29% | < 10% | – | < 10% | 19.7% | – | – | – | –
CCOC(=O)C1=C(Nc2ccccc2)S/C(=C\c2ccc(Br)c(O)c2)C1=O | – | – | – | – | 39.8% | 16.4% | – | 13.6% | 22% | – | – | – | –
CCOC(=O)C1=C(Nc2ccccc2)S/C(=C\c2cc3ncccc3[nH]2)C1=O | – | 6.6 µM | 13.6 µM | – | 74.8% | 42.2% | 9.6 µM | – | – | – | – | – | –
CCOC(=O)C1=C(Nc2ccccc2)S/C(=C\c2cc3ccncc3[nH]2)C1=O | – | – | – | – | 26.3% | 18.2% | – | 17.1% | 22.8% | – | – | – | –
CCOC(=O)C1=C(Nc2ccccc2)S/C(=C\c2ccc([N+](=O)[O-])c(O)c2)C1=O | – | 12.7 µM | 19.1 µM | – | 51.2% | 41.5% | 12.7 µM | – | – | – | – | – | –
CCOC(=O)C1=C(Nc2ccccc2)S/C(=C\c2ccc(C(=O)O)cc2)C1=O | – | – | – | – | 16.8% | < 10% | – | 11.6% | 27.5% | – | – | – | –
CCOC(=O)C1=C(Nc2ccccc2)SC(=C2CCN(C)CC2)C1=O | – | – | – | – | < 10% | < 10% | – | < 10% | – | – | – | – | –
CCOC(=O)C1=C(Nc2ccc(OC)cc2)S/C(=C\c2ccc[nH]2)C1=O | – | – | – | – | 27.6% | < 10% | – | < 10% | – | – | – | – | –
CCOC(=O)C1=C(Nc2ccccc2)S/C(=C\c2ccc(OC)cc2)C1=O | – | – | – | – | 32.9% | 14.7% | – | 17.5% | 9.6% | – | – | – | –
CCOC(=O)C1=C(Nc2ccc(C)cc2)S/C(=C\c2ccc[nH]2)C1=O | – | – | – | – | < 10% | < 10% | – | 20.9% | – | – | – | – | –
CCOC(=O)C1=C(Nc2ccc(Br)cc2)S/C(=C\c2ccc[nH]2)C1=O | – | – | – | – | 41.5% | < 10% | 27 µM | < 10% | 17% | – | – | – | –
CCOC(=O)C1=C(Nc2ccccc2)S/C(=C\c2ccc(OC)c(O)c2)C1=O | 0.6 °C | – | – | – | – | – | – | 11% | – | – | – | – | –
CCOC(=O)C1=C(Nc2ccc(OC)c(OC)c2)S/C(=C\c2ccc[nH]2)C1=O | – | – | – | – | 47.9% | – | – | – | – | – | – | – | –
